Experimental data from patent US8383619B2, “Pharmaceutical compounds” (Astex Therapeutics Limited, priority 2008, dated 2013).
Structures can show the parent of a compound that is named as a salt.

Legend:
[1] = Liver homogenate stability; type: in vitro ADME; settings: 1 μM, 37° C., 120 mins
Description: (§1) The breakdown of a prodrug in vivo could occur in one or more of several different compartments including for example, but not limited to blood/plasma, liver, stomach, target tissue (e.g. tumour). The preferred location for optimum formation of the parent drug will depend on the disposition in vivo of the pro-drug and parent and an understanding of the optimum concentrations of each required in the circulation to maximise exposure to the active moiety in the target tissue. The potential for pro-drug molecules to deliver the active parent drug may be assessed in vitro by measuring the breakdown of a pro-drug in the presence of relevant body fluids. For the purpose of gaining a preliminary understanding of the stability of compounds of the invention to enzymatic hydrolysis in two such bodily compartments, compound turnover has been studied following incubation in whole blood and liver homogenate from mice and humans. The data obtained from these studies provide a preliminary understanding of which of the prodrugs are better able to deliver parent compound (i.e. are more rapidly broken down to parent compound) in these compartments. Further studies could also determine stability in other compartments (e.g. in the target tumours by measuring stability in tumour lysates).
Mouse livers were obtained from 20 male mice, strain: Balb/c from stock animals. Human liver tissue was obtained from 3 individuals sourced from a UK human tissue bank. The livers were stored frozen. The livers were defrosted and then homogenised to form a homogenate of approximately 30% (w/v) in phosphate buffer, 100 mM, pH 7.4 (referred to as ‘buffer’). Homogenates were kept on ice until use.
(§2) Each incubation consisted of a volume of 1 mL. Test compound dosing solutions were then spiked into each homogenate at a final compound concentration of 1 μM. Incubations were performed in the atmosphere in a shaking water bath at 37° C.
(§3) An aliquot of incubation samples was removed into an equal volume of ice-cold acetonitrile at various time points. Samples (whole blood/homogenate+acetonitrile) were centrifuged and aliquots of the supernatant were analysed by HPLC-MS/MS.
(§4) The compound X (2,4-dihydroxy-5-isopropyl-phenyl)-[5-(4-methyl-piperazin-1-ylmethyl)-1,3-dihydro-isoindol-2-yl]-methanone) and the compounds of Examples 1 to 24 were incubated in both whole blood and liver homogenate by Quotient Bioresearch (Rushden, UK). The percentage remaining of parent compound following incubation in whole blood/liver homogenate from human and mouse are set out in the table below.

Whole blood stability = type: in vitro ADME; settings: 1 μM, 37° C.
Description: as §1
For these studies, human whole blood was collected from 3 male healthy volunteers in lithium heparin tubes. The blood was pooled and stored at room temperature for a maximum of 2 hours prior to initiation of incubations. Mouse blood was collected from 70 male mice, strain: Balb/c into lithium heparin tubes and pooled.
as §2, §3, §4

SMILES	Percentage remaining Human Liver [1]	Percentage remaining Mouse Liver [1]	Percentage remaining Human blood (Whole blood stability; 120 mins)	Percentage remaining Mouse blood (Whole blood stability; 120 mins)	Percentage remaining Mouse blood (Whole blood stability; 60 mins (footnote *))
CC(C)c1cc(C(=O)N2Cc3ccc(CN4CCN(C)CC4)cc3C2)c(OC(=O)OC(C)(C)C)cc1OC(=O)OC(C)(C)C [Example 23, Carbonic acid 5-tert-butoxycarbonyloxy-4-isopropyl-2-[5-(4-methyl-piperazin-1-ylmethyl)-1,3-dihydro-isoindole-2-carbonyl]-phenyl ester tert-butyl ester]	1%	0%	26%	0%	
CC(C)c1cc(C(=O)N2Cc3ccc(CN4CCN(C)CC4)cc3C2)c(OC(=O)N2CCCC2)cc1O [Example 18, 2-[2-(pyrrolidin-1-ylcarbonyloxy)-4-hydroxy-5-isopropyl-benzoyl]-5-(4-methyl-piperazin-1-ylmethyl)-1,3-dihydro-isoindole]	65%	80%	110%		103% *
COc1cc(OC)c(C(C)C)cc1C(=O)N1Cc2ccc(CN3CCN(C)CC3)cc2C1 [Example 3, (5-Isopropyl-2,4-dimethoxy-phenyl)-[5-(4-methyl-piperazin-1-ylmethyl)-1,3-dihydro-isoindol-2-yl]-methanone]	79%	93%	107%	100%	
CC(C)c1cc(C(=O)N2Cc3ccc(CN4CCN(C)CC4)cc3C2)c(O)cc1OC(=O)N1CCOCC1 [Example 21, 2-[4-(morpholin-4-ylcarbonyloxy)-2-hydroxy-5-isopropyl-benzoyl]-5-(4-methyl-piperazin-1-ylmethyl)-1,3-dihydro-isoindole]	0%	0%	82%	0%	
C=CCOc1cc(O)c(C(=O)N2Cc3ccc(CN4CCN(C)CC4)cc3C2)cc1C(C)C [Example 5, (4-Allyloxy-2-hydroxy-5-isopropyl-phenyl)-[5-(4-methyl-piperazin-1-ylmethyl)-1,3-dihydro-isoindol-2-yl]-methanone]	81%	86%	115%	124%	
COCOc1cc(O)c(C(=O)N2Cc3ccc(CN4CCN(C)CC4)cc3C2)cc1C(C)C [Example 8, [2-Hydroxy-5-isopropyl-4-(methoxymethyloxy)-phenyl]-[5-(4-methyl-piperazin-1-ylmethyl)-1,3-dihydro-isoindol-2-yl]-methanone]	102%	79%	114%	104%	
CC(C)c1cc(C(=O)N2Cc3ccc(CN4CCN(C)CC4)cc3C2)c(OC(=O)N2CCOCC2)cc1O [Example 20, 2-[2-(morpholin-4-ylcarbonyloxy)-4-hydroxy-5-isopropyl-benzoyl]-5-(4-methyl-piperazin-1-ylmethyl)-1,3-dihydro-isoindole]	23%	45%	97%	16%	
C=CCOc1cc(OCC=C)c(C(C)C)cc1C(=O)N1Cc2ccc(CN3CCN(C)CC3)cc2C1 [Example 6, (2,4-Bis-allyloxy-5-isopropyl-phenyl)-[5-(4-methyl-piperazin-1-ylmethyl)-1,3-dihydro-isoindol-2-yl]-methanone]	94%	75%	105%	125%	
C=CCOc1cc(O)c(C(C)C)cc1C(=O)N1Cc2ccc(CN3CCN(C)CC3)cc2C1 [Example 4, (2-Allyloxy-4-hydroxy-5-isopropyl-phenyl)-[5-(4-methyl-piperazin-1-ylmethyl)-1,3-dihydro-isoindol-2-yl]-methanone]	92%	63%	109%	106%	
CCN(CC)C(=O)Oc1cc(OC(=O)N(CC)CC)c(C(C)C)cc1C(=O)N1Cc2ccc(CN3CCN(C)CC3)cc2C1 [Example 10]	56%	60%	108%	93%	
CC(C)c1cc(C(=O)N2Cc3ccc(CN4CCN(C)CC4)cc3C2)c(OC(=O)C(C)(C)C)cc1OC(=O)C(C)(C)C [Example 24, 2,2-Dimethyl-propionic acid 5-(2,2-dimethyl-propionyloxy)-2-isopropyl-4-[5-(4-methyl-piperazin-1-ylmethyl)-1,3-dihydro-isoindole-2-carbonyl]-phenyl ester dihydrochloride]	2%	0%	11%	0%	
CC(C)c1cc(C(=O)N2Cc3ccc(CN4CCN(C)CC4)cc3C2)c(OC(=O)OC(C)(C)C)cc1OC(=O)N(C)C [Example 22, Carbonic acid tert-butyl ester 5-dimethylcarbamoyloxy-4-isopropyl-2-[5-(4-methyl-piperazin-1-ylmethyl)-1,3-dihydro-isoindole-2-carbonyl]-phenyl ester]	6%	0%	18%	0%	
CC(C)c1cc(C(=O)N2Cc3ccc(CN4CCN(C)CC4)cc3C2)c(O)cc1OC(=O)N1CCCC1 [Example 19, 2-[4-(pyrrolidin-1-ylcarbonyloxy)-2-hydroxy-5-isopropyl-benzoyl]-5-(4-methyl-piperazin-1-ylmethyl)-1,3-dihydro-isoindole]	0%	0%	102%		79% *
COc1cc(O)c(C(C)C)cc1C(=O)N1Cc2ccc(CN3CCN(C)CC3)cc2C1 [Example 1, (4-Hydroxy-5-isopropyl-2-methoxy-phenyl)-[5-(4-methyl-piperazin-1-ylmethyl)-1,3-dihydro-isoindol-2-yl]-methanone]	99%	104%	100%	104%	
COCOc1cc(OCOC)c(C(C)C)cc1C(=O)N1Cc2ccc(CN3CCN(C)CC3)cc2C1 [Example 9, [5-Isopropyl-2,4-bis-(methoxymethyloxy)-phenyl]-[5-(4-methyl-piperazin-1-ylmethyl)-1,3-dihydro-isoindol-2-yl]-methanone]	98%	82%	111%		105% *
CCN(CC)C(=O)Oc1cc(O)c(C(=O)N2Cc3ccc(CN4CCN(C)CC4)cc3C2)cc1C(C)C [Example 15, Diethyl-carbamic acid 5-hydroxy-2-isopropyl-4-[5-(4-methyl-piperazin-1-ylmethyl)-1,3-dihydro-isoindole-2-carbonyl]-phenyl ester]	35%	26%	123%	58%	
CCN(CC)C(=O)Oc1cc(O)c(C(C)C)cc1C(=O)N1Cc2ccc(CN3CCN(C)CC3)cc2C1 [Example 14, Diethyl-carbamic acid 5-hydroxy-4-isopropyl-2-[5-(4-methyl-piperazin-1-ylmethyl)-1,3-dihydro-isoindole-2-carbonyl]-phenyl ester]	88%	89%	94%	94%	
CC(C)c1cc(C(=O)N2Cc3ccc(CN4CCN(C)CC4)cc3C2)c(O)cc1O [Compound X, (2,4-dihydroxy-5-isopropyl-phenyl)-[5-(4-methyl-piperazin-1-ylmethyl)-1,3-dihydro-isoindol-2-yl]-methanone]	94%	112%	100%	102%	
COCOc1cc(O)c(C(C)C)cc1C(=O)N1Cc2ccc(CN3CCN(C)CC3)cc2C1 [Example 7, [4-Hydroxy-5-isopropyl-2-(methoxymethyloxy)-phenyl]-[5-(4-methyl-piperazin-1-ylmethyl)-1,3-dihydro-isoindol-2-yl]-methanone]	92%	115%	109%		104% *
